Where a name gives a salt, the structure may show the parent alone.

Our source for the Ki values is patent publication US5990317A, “2-(1H-4(5)-imidazoyl) cyclopropyl compounds” (Gliatech, Inc., priority 1998, dated 1999).

The target of this assay is Histamine H3 receptor. Nature of the assay: In Vitro Histamine H3 Receptor Binding Analysis ([3H]-N-alpha-methylhistamine displacement, rat cortical membranes). The following applies: [3H]-N-alpha-methylhistamine 0.8-1.2 nM, pH 7.4, 40 min, 25° C, read-out: Histamine H3 Receptor Binding Affinities, H3 Receptor Ki. As to the method:
Histamine H3 receptor affinity was determined in rat cortical membranes using the H3 selective agonist ligand, [^3 H]-N^α -methylhistamine (78.9 Ci/mole, DuPont NEN Research Products, Boston, Mass.) according to the method of West et al., (1990) Mol. Pharmacol. 38: 610-613 with modifications. Briefly, animals were sacrificed by decapitation and the cerebral cortex was rapidly removed. Rat cortices were mechanically homogenized with an Omni 1000 motor driven homogenizer in 10 volumes (wt/vol) of Krebs-Ringers Hepes buffer (pH 7.4) containing the following protease inhibitors: EDTA (10 mM), PMSF (0.1 mM), chymostatin (0.2 mg/50 mL) and leupeptin (0.2 mg/50 mL). The homogenate was centrifuged in a Sorvall at ~40,000×g for 30 min. The pellet was resuspended by mechanical homogenization in 25 mL water and lysed on ice for 30 min. The homogenate was recentrifuged and the membrane lysis was repeated. The membranes were recentrifuged and the final pellet was resuspended in 14 volumes of water to give approximately 200 μg protein/100 μl final concentration. The suspension was stored at -80° prior to use. Protein concentrations were determined by Coomassie Plus Protein Assay (Pierce, Rockford, Ill.).
Nonspecific binding (NSB) was accounted for by the inclusion of thioperamide (10 μM). Samples were incubated for 40 minutes at 25° C. The samples were filtered through glass fiber strips, pre-washed with 0.3% polyethyleneimine, using a Brandell cell harvester. The filters were rapidly washed three times with 4 ml of 25 mm Tris buffer containing 145 mM NaCl (pH 7.4, 4° C.). Filters were transferred to polyethylene mini-vials and counted in 3.5 ml of scintillation fluid (Ecolume, ICN Biomedicals, Inc.). […] Saturation and competition experiments were analyzed with the ReceptorFit saturation and competition curve fitting programs (Lundon Software, Ind., Cleveland, Ohio).
For orientation: Ki means a measure of affinity in units of concentration, obtained from inhibition or displacement. Consider `C[C@@H](NC(=O)C1CC1c1c[nH]cn1)C1CCCCC1` (mixture of isomers) [Example 6, N-[(R)-1-Cyclohexylethyl]-3-(1H-imidazol-4-yl)-trans-(2R,3R)-cyclopropanamide and N-[(R)-1-Cyclohexylethyl]-3-(1H-imidazol-4-yl)-trans-(2S,3S)-cyclopropanamide hydrochloride], for which the Ki came to 70 ± 8.6 nM.

On to `C[C@H](NC(=O)C1CC1c1c[nH]cn1)C1CCCCC1` (mixture of isomers) [Example 7, N-[(S)-1-Cyclohexylethyl]-3-(1H-imidazol-4-yl)-trans-(2R,3R)-cyclopropanamide and N-[(S)-1-Cyclohexylethyl]-3-(1H-imidazol-4-yl)-trans-(2S,3S)-cyclopropanamide hydrochloride], for which the inhibition constant (Ki) was 146 ± 13 nM.

Consider `O=C(CCCC1CCCCC1)[C@@H]1C[C@H]1c1c[nH]cn1` (racemic) [Example 10, (±)-trans-4-cyclohexyl-1-(2-imidazol-4-ylcyclopropyl)butan-1-one], for which the Ki stood at 97 ± 21 nM.

Consider `CN(CC1CCCCC1)C(=O)[C@@H]1C[C@H]1c1c[nH]cn1` (racemic) [Example 11, (±)-trans-N-(cyclohexylmethyl)(2-imidazol-4-ylcyclopropyl)-N-methylformamide], for which the Ki came to 134 ± 13 nM.

Turning to `c1nc([C@@H]2C[C@H]2COCCCC2CCCCC2)c[nH]1` (racemic) [Example 18, (±)-trans-(3-cyclohexylpropoxy)(2-imidazol-4-ylcyclopropyl)methane], the Ki was 240 ± 6 nM.

`OC(CCCC1CCCCC1)[C@@H]1C[C@H]1c1c[nH]cn1` (mixture of isomers) [Example 19, (±)-trans-4-cyclohexyl-1-(2-imidazol-4-ylcyclopropyl)butan-1-ol]: the Ki was 160 ± 9 nM.

Regarding `O=C(NCc1ccccc1)[C@@H]1C[C@H]1c1c[nH]cn1` (relative stereo) [Example 1, N-(1-Benzyl)-3-[(1H-imidazol-4-yl)]-(2R,3R)-trans-cyclopropanamide and N-(1-Benzyl)-3-[(1H-imidazol-4-yl)]-(2S,3S)-trans-cyclopropanamide hydrochloride], the Ki came out at 53 ± 2 nM.

As for `O=C(NCC1CCCCC1)[C@@H]1C[C@H]1c1c[nH]cn1` (relative stereo) [Example 2, (±)-trans-N-(cyclohexylmethyl)(2-imidazol-4-ylcyclopropyl)formamide], the inhibition constant (Ki) is 37 ± 4 nM.

On to `CC1CCCCN1CCCNC(=O)[C@@H]1C[C@H]1c1c[nH]cn1` (relative stereo) [Example 3, (±)-trans-(2-imidazol-4-ylcyclopropyl)-N-(3-((±)-2-methylpiperidyl)formamide], for which the inhibition constant (Ki) came out at 659 ± 52 nM.

Consider `O=C(NCCCN1CCOCC1)[C@@H]1C[C@H]1c1c[nH]cn1` (relative stereo) [Example 4, (±)-trans-(2-imidazol-4-ylcyclopropyl)-N-(3-morpholin-4-ylpropyl)formamide], for which the Ki is 1400 ± 158 nM.

In the case of `O=C(Nc1ccccc1)[C@@H]1C[C@H]1c1c[nH]cn1` (relative stereo) [Example 5, N-(phenyl)-3-(1H-imidazol-4-yl)-trans-(2R,3R)-cyclopropanamide and N-(phenyl)-3-(1H-imidazol-4-yl)-trans-(2S,3S)-cyclopropanamide hydrochloride], the Ki came to 267 ± 26 nM.

As for `O=C(NCC12CC3CC(CC(C3)C1)C2)[C@@H]1C[C@H]1c1c[nH]cn1` (relative stereo) [Example 8, N-[1-Adamantylmethyl]-3-(1H-imidazol-4-yl)-trans-(2R,3R)-cyclopropanamide hydrochloride and N-[1-Adamantylmethyl]-3-(1H-imidazol-4-yl)-trans-(2S,3S)-cyclopropanamide hydrochloride], the Ki worked out at 55 ± 6 nM.

Regarding `O=C(NCCc1ccccc1)[C@@H]1C[C@H]1c1c[nH]cn1` (relative stereo) [Example 9, (±)-trans-(2-imidazol-4-ylcyclopropyl)-N-(2-phenylethyl)formamide], the Ki was determined as 163 ± 19 nM.

Consider `C(=C/[C@@H]1C[C@H]1c1c[nH]cn1)/CCC1CCCCC1` (relative stereo) [Example 16, (±)-trans-4-(2-(4-cyclohexylbut-cis-1-enyl)cyclopropyl)imidazole], for which the Ki was 12.2 ± 1 nM.

Take `C(=C\[C@@H]1C[C@H]1c1c[nH]cn1)/CCC1CCCCC1` (relative stereo) [Example 17, (±)-trans-4-(2-(4-cyclohexylbut-trans-1-enyl)cyclopropyl)imidazole]: the Ki was determined as 11 ± 1 nM.

On to `O=C(N[C@@H]1C[C@H]1c1c[nH]cn1)OCc1ccccc1` (relative stereo) [Example 26, (±)-trans-N-(2-imidazol-4ylcyclopropyl)(phenylmethoxy)formamide], for which the Ki came to 5.8 ± 0.4 nM.

As to `O=C(NCCCC1CCCCC1)[C@@H]1C[C@H]1c1c[nH]cn1` (relative stereo) [Example 29, N-[3-cyclohexylpropyl]-3(R)-[1H-imidazoyl-4-yl]-2(R)-cyclopropanamide and N-[3-Cyclohexylpropyl]-3(S)-[1H-imidazoyl-4-yl]-2(R)-cyclopropanamide], the Ki is 36 ± 8 nM.

As for `O=C(NCCC1=CCCCC1)[C@@H]1C[C@H]1c1c[nH]cn1` (relative stereo) [Example 31, N-[2-Cyclohex-1-enyl-ethyl]-3(R)-[1H-imidazol-4-yl]-2(R)-cyclopropanamide HCl salt and N-[2-Cyclohex-1-enyl-ethyl]-3(S)-[1H-imidazol-4-yl]-2(S)-cyclopropanamide HCl salt], the Ki is 294 ± 26 nM.

Consider `O=C(NCC1CC1)[C@@H]1C[C@H]1c1c[nH]cn1` (relative stereo) [Example 32, (±)-trans-N-(cyclopropylmethyl)(2-imidazol-4-ylcyclopropyl)formamide], for which the Ki was found to be 876 ± 158 nM.

Take `O=C(NCCCc1ccccc1)[C@@H]1C[C@H]1c1c[nH]cn1` (relative stereo) [Example 33, (±)-trans-(2-imidazol-4-ylcyclopropyl)-N-(3-phenylpropyl)formamide]: the Ki came out at 197 ± 23 nM.

Turning to `O=C(NCCc1c[nH]cn1)[C@@H]1C[C@H]1c1c[nH]cn1` (relative stereo) [Example 34, (±)-trans-(2-imidazol-4-ylcyclopropyl)-N-(2-imidazol-4-ylethyl)formamide], the Ki is 227 ± 26 nM.

For `O=C(NCCc1c[nH]c2ccccc12)[C@@H]1C[C@H]1c1c[nH]cn1` (relative stereo) [Example 35, (±)-trans-(2-imidazol-4-ylcyclopropyl)-N-(2-indol-3-ylethyl)formamide], the Ki was found to be 44 ± 73 nM.

Consider `O=C(NCC(O)CC1CCCCC1)[C@@H]1C[C@H]1c1c[nH]cn1` (relative stereo) [Example 36, (±)-trans-N-(3-cyclohexyl-2-(±)-hydroxypropyl)(2-imidazol-4-ylcyclopropyl)formamide], for which the Ki was 145 nM.

Regarding `O=C(NCCCCC1CCCCC1)[C@@H]1C[C@H]1c1c[nH]cn1` (relative stereo) [Example 37, (±)-trans-N-(4-cyclohexylbutyl)(2-imidazol-4-ylcyclopropyl)formamide], the Ki is 68 nM.

In the case of `O=C(NCC1CCCCC1)[C@H]1C[C@@H]1c1c[nH]cn1` [Example 2a], the Ki was found to be 23 ± 1 nM.

`O=C(NCC1CCCCC1)[C@@H]1C[C@H]1c1c[nH]cn1` [Example 2b]: the Ki came to 176 ± 9 nM.

As to `NC(CC1CCCCC1)C(=O)NC1CC1c1c[nH]cn1` [Example 12, (1R,2R)-trans-2(S)-amino-3-cyclohexyl-N-(2-imidazol-4-ylcyclopropyl)propanamide], the Ki stood at 1.85 ± 0.5 nM.

As for `NC(CC1CCCCC1)C(=O)NC1CC1c1c[nH]cn1` [Example 13, (1S,2S)-trans-2(S)-amino-3-cyclohexyl-N-(2-imidazol-4-ylcyclopropyl)propanamide], the Ki is 21.5 ± 1.8 nM.

Take `O=C(N[C@H]1C[C@@H]1c1c[nH]cn1)[C@@H]1CC2CCCCC2N1` (stereo partly drawn) [Example 14, (2R,3R)-trans-(7-azabicyclo[43.0]non-(S)-8-yl)-N-(2-imidazol-4-ylcyclopropyl)formamide]: the Ki came to 8.5 ± 0.7 nM.

On to `O=C(N[C@@H]1C[C@H]1c1c[nH]cn1)[C@@H]1CC2CCCCC2N1` (stereo partly shown) [Example 15], for which the Ki came out at 37 ± 4 nM.

`NC(C=CC1CC1c1c[nH]cn1)CC1CCCCC1` [Example 20, (1R,2R)-trans-1-cyclohexyl-4-(2-imidazol-4-ylcyclopropyl)but-trans-3-en-2(S)-ylamine]: the inhibition constant (Ki) came to 0.37 ± 0.2 nM.

Take `NC(C=CC1CC1c1c[nH]cn1)CC1CCCCC1` [Example 21, 1(R)-[1H-imidazol-4-yl]-2(R)-cyclopropyl-5-(S)-amino-6-cyclohexyl-3-cis-hexene]: the Ki was determined as 97.7 ± 28 nM.

As for `C(=CC1CC1c1c[nH]cn1)CCC1CCCCC1` [Example 22, (1R,2R)-trans--4-(2-(4-cyclohexylbut-trans-1-enyl)cyclopropyl)imidazole], the Ki worked out at 2.4 ± 0.2 nM.

On to `C(=CC1CC1c1c[nH]cn1)CCC1CCCCC1` [Example 23, (1R,2R)-trans-4-(2-(4-cyclohexylbut-cis-1-enyl)cyclopropyl)imidazole], for which the Ki came out at 6.2 ± 0.8 nM.
